Measurements from patent US20090325909A1, “Suppression of HIV replication and prevention and treatment of HIV” (The Johns Hopkins University, priority 2003, published 2009).
Where a name gives a salt, the structure may show the parent alone.

How the values were obtained:
[1] = system: SIV/17E-Fr and SIV/DeltaB670; experiment: SIV replication in primary macaque macrophages, p27; assay type: cell-based; conditions: for reduction in SIV p27 levels: SIV/DeltaB670-infected macrophages, 10 days p.i.
Text: (§1) The HIV strains used in these experiments were HIVBaL (for macrophage infection) and HIVIIIB (for lymphocyte infection); the SIV strains were SIV/17E-Fr and SIV/DeltaB670 (both grow well in primary macrophages and lymphocytes.).
(§2) Virus replication was quantified over time by p24 (HIV) or p27 (SIV) ELISA.
Inhibition of SIV Virus in vitro. […]

[2] = system: HIVBaL; experiment: HIV replication in primary human macrophages, p24 ELISA; assay type: cell-based
Text: as §1, §2

[3] = system: SIV/17E-Fr and SIV/DeltaB670; experiment: SIV replication in primary macaque PBL, p27 ELISA; assay type: cell-based; conditions: pretreated with minocycline 24 hr prior to infection
Text: as §1, §2

[4] = system: SIV/DeltaB670 and SIV/17E-Fr; experiment: Incidence and severity of encephalitis in the accelerated SIV/macaque model; assay type: in vivo, pigtailed macaques (Macaca nemestrina); conditions: 4 mg/kg/day oral from 21 days p.i., euthanized at 84 days p.i., n = 5
Text: Primate model for asymptomatic acute SIV infection. To identify events during acute and asymptomatic infection that lead to CNS disease a SIV/macaque model was developed in which the vast majority of infected animals develop CNS disease. […] These findings indicated the presence of mechanisms in the CNS that quell SIV replication and macrophage activation early after infection.
To identify events during acute and asymptomatic infection that lead to CNS disease in a SIV/macaque, a model was needed in which the vast majority of infected animals develop CNS disease. […] Virus replication and macrophage activation markers in the CNS declined in all macaques by 21 days p.i., despite high levee virus replication in the peripheral blood at this time. These findings indicated the presence of mechanisms in the CNS that quell SIV replication and macrophage activation early after infection.
Animals. Twenty-eight pigtailed macaques (Macaca nemestrina) were intravenously inoculated with a virus swarm, SIV/DeltaB670, and a cloned, neurovirulent virus, SIV/17Efr. Samples of brain tissue (basal ganglia and adjacent subcortical white matter) from macaques euthanized at 10 (n=6), 21′ (n=5), 56 (n=5) and 84 (n−=12) days p.i., and from uninfected control macaques (n=3 to 8) were fixed and embedded and […] sections were cut for immunohistochemical analysis of MAPKs. Of the macaques euthanized at 84 days p.i., one had no morphologic signs of encephalitis, two had mild encephalitis, five had moderate encephalitis and four had severe encephalitis based on morphologic criteria.
All macaques were euthanized at 84 days p.i. and their brains examined for pathological lesions typical of SIV encephalitis.

[5] = system: HIVIIIB; experiment: HIV replication in primary human PBL, p24 ELISA; assay type: cell-based
Text: as §1, §2

[6] = pretreated with minocycline 24 hr prior to infection

For `CN(C)c1ccc(O)c2c1C[C@H]1C[C@H]3[C@H](N(C)C)C(O)=C(C(N)=O)C(=O)[C@@]3(O)C(O)=C1C2=O` [Minocycline, [4S-(4a,4aa,5aa,12aa)-4,7-bis(dimethylamino)-1,4,4a,5,5a,6,11,12a-octahydro-3,10,12,12a-tetrahydroxy-1,11-dioxo-2-naphthacenecarboxamide]monohydrochloride], which “inhibition of virus replication” value ([1]; SIV/17E-Fr-infected macrophages) is on record?
Its value is 85%.

What about the “reduction in SIV p27 levels” value ([1]; 10 μg/ml at the time of infection) of the same compound?
The value was 95%.

What about the “reduction in SIV p27 levels” value ([1]; 40 μg/ml prior to infection) of the same compound?
Its value is 98%.

What about the “inhibition of SIV replication in macrophages” value [1, 6] of the same compound?
Its value is 85%.

And the “reduction in HIV p24 levels” value ([2]; HIV-infected macrophages, 40 μg/ml 24 hours prior to infection, 9 days p.i.)?
Its value is 99%.

What about the “inhibition of HIV replication in macrophages” value [2, 6] of the same compound?
The value was 99%.

And the “inhibition of SIV replication in PBL” value [3]?
The value was 99%.

What about the “Severity of Encephalitis: Mild (number of macaques)” value [4] of the same compound?
The value was 2.

And the “Severity of Encephalitis: Moderate (number of macaques)” value [4]?
Its value is 0.

And the “Severity of Encephalitis: None (number of macaques)” value [4]?
The value was 3.

What about the “Severity of Encephalitis: Severe (number of macaques)” value [4] of the same compound?
Its value is 0.

What about the “reduction in HIV p24 levels” value ([5]; HIV-infected lymphocytes, 40 μg/ml 24 hours prior to infection, 9 days p.i.) of the same compound?
Its value is 92%.

What about the “inhibition of HIV replication in PBL” value [5, 6] of the same compound?
Its value is 92%.
